Each structure is given as a SMILES string. Active and inactive are the calls of the source. The rule behind the calls is not given here. Bounds are passed on as bounds.

As a reminder, the IC50 is the concentration needed to halve the response being measured.

The experiment has as its system HT1080 cells viability, ATPLite luminescence, overnight. Put plainly: HT1080 parental cell cytotoxicity, dose response, cytotoxicity control for MT1-MMP activation inhibitor project, ATPLite luminescence, set 1 (AID 652252). (In general: In ATP-based viability assays light output follows the ATP content of the culture.)
`COc1ccc(-c2oc3ccc(-c4ccc(OC)nc4)cc3c2C#CC2(O)CCCCC2)cc1`: the IC50 was > 80 µM (inactive).

Turning to `O=C1c2ccccc2C(=O)c2c(O)c(O)cc(O)c21`, the IC50 was > 80 µM (inactive).

Consider `CCOc1ccc2nc(N=Nc3c(O)[nH]c(=S)[nH]c3=O)sc2c1`, for which the IC50 was 38.1 µM (inactive).

Consider `Cc1ccc(S(=O)(=O)/N=C2\C=C(NS(=O)(=O)c3ccccc3)C(=O)c3ccccc32)c(C)c1`, for which the IC50 was > 80 µM (inactive).

`COc1ccc(Nc2ccccc2N)cc1`: the IC50 is 2.38 µM.

As for `Cc1cc(N(CCO)CCO)ccc1N=Nc1cc(F)ccc1F`, the IC50 is > 80 µM (inactive).

On to `Cc1cccc[n+]1CC(=O)/C=C1\N(C)c2ccccc2C1(C)C`, for which the IC50 is 70.6 µM (inactive).

Turning to `CNc1c(C(=O)O)ccc2c1C(=O)c1ccccc1C2=O`, the IC50 is > 80 µM (inactive).

For the molecule `CC[n+]1c(/C=C/N(C)c2ccccc2)sc2ccc(Cl)cc21`, the IC50 is > 80 µM (inactive).

As to `CC(=O)Oc1ccc2oc(/C=C/N(C)C)c([N+](=O)[O-])c2c1`, the IC50 was > 80 µM (inactive).

`CCN(CC)c1ccc(C(=C2C=CC(=[N+](CC)CC)C=C2)c2ccc(N(CC)CC)cc2)cc1`: the IC50 is > 80 µM (inactive).

Consider `C/C(=C/c1oc2ccc(O)cc2c1[N+](=O)[O-])N(C)C`, for which the IC50 was > 80 µM (inactive).

Take `CC1=NN(c2ccccc2)C(=O)C1N=Nc1ccc(N)cc1` (configuration not stated): the IC50 is > 80 µM (inactive).

For the molecule `COc1cc(N(C)C)ccc1C=c1c2ccccc2n2c1cc(-c1ccccc1)[n+]2C`, the IC50 is 1.43 µM.

As to `CCOC(=O)C1=C(C)N=c2s/c(=C\c3ccc(OC(C)=O)c(OCC)c3)c(=O)n2C1/C=C/c1ccccc1` (configuration not stated), the IC50 was 3.54 µM.

`CN1C(=O)/C(=C2/C=Cc3ccccc3N2CCCS(=O)(=O)O)SC1=S`: the IC50 was > 80 µM (inactive).

For the molecule `COc1ccc(C)cc1N=Nc1ccc(O)c2ncccc12`, the IC50 was > 80 µM (inactive).

As to `CN1C2=CC=CC=CC2=[N+](C)C12C=CC(=[N+]([O-])[O-])C=C2[N+](=O)[O-]` (configuration not stated), the IC50 is > 80 µM (inactive).

Turning to `O=C1c2cccc(NCCCNCCO)c2C(=O)c2cccc(NCCCNCCO)c21`, the IC50 is > 80 µM (inactive).

For the molecule `Nc1nc(-c2ccc(Cl)cc2)c(N=Nc2ccc(S(=O)(=O)N3CCOCC3)cc2)s1`, the IC50 is 30.3 µM (inactive).

As to `CNc1ccccc1C(C)(C)c1cc(-c2cccc(OC)c2)no1`, the IC50 is > 80 µM (inactive).

For `O=C(NNc1c2ccccc2nc2ccccc12)c1cc2ccccc2cc1O`, the IC50 was > 80 µM (inactive).

On to `CCN(CC)c1ccc(/C=C2\C(=O)N(c3nnc(C)c(=O)[nH]3)N=C2C)cc1`, for which the IC50 is > 80 µM (inactive).

For the molecule `CCCN1C(=O)/C(=C2/C=Cc3ccccc3N2CC)SC1=S`, the IC50 is 64.9 µM (inactive).

On to `CN(C)c1ccc(C=c2c3ccccc3n3c2c2c([n+]3C)CCCC2)cc1`, for which the IC50 was > 80 µM (inactive).

As to `CNc1ccc2nc3ccccc3[n+](C)c2c1`, the IC50 is 11.4 µM.

As for `O=C(NNc1c2ccccc2nc2ccccc12)c1ccc(Cl)cc1`, the IC50 was > 40 µM (inactive).

For `Cc1ccccc1C1=C/C(=C(\SS/C(C(=O)c2ccc(OCC(=O)O)c(Cl)c2Cl)=C2\C=C(c3ccccc3C)SS2)C(=O)c2ccc(OCC(=O)O)c(Cl)c2Cl)SS1`, the IC50 was 51.8 µM (inactive).

For `CCn1c(=O)c(=O)[nH]c2cc(C(=O)NC3CCCc4ccccc43)ccc21` (configuration not stated), the IC50 is > 80 µM (inactive).

Regarding `Nc1ccc(NC(=O)c2ccccc2)c2c1C(=O)c1ccccc1C2=O`, the IC50 was > 80 µM (inactive).

Regarding `CN1C(=O)/C(=C\c2cc(N=Nc3ccccc3)ccc2O)SC1=S`, the IC50 is > 80 µM (inactive).

For the molecule `CN=C1C=C/C(=N/N=c2\ccn(O)cc2C)C=C1C`, the IC50 was > 80 µM (inactive).

`CC1(C)CCCN(C(=O)c2ccc3c(c2NCCO)C(=O)c2ccccc2C3=O)C1`: the IC50 is > 80 µM (inactive).

As for `CNc1ccccc1C(C)(C)c1cc(-c2cccc(Br)c2)no1`, the IC50 was > 80 µM (inactive).

Take `COc1ccc(C)cc1Nc1nc(-c2c(C)[nH]c3ccccc23)cs1`: the IC50 was > 80 µM (inactive).

With `CC1=C/C(=C(/c2cc(C)c(O)c(Br)c2)c2ccccc2S(=O)(=O)O)C=C(Br)C1=O`, the IC50 is > 80 µM (inactive).

As for `COc1ccccc1C(=O)NC(=S)/C=C1/N(C)c2ccccc2C1(C)C`, the IC50 is > 80 µM (inactive).

As for `Cc1c(C(=O)OCC(=O)NCC2CCCO2)oc2ccccc12` (configuration not stated), the IC50 was > 40 µM (inactive).

Turning to `N#CC(C#N)=NNc1ccc([N+](=O)[O-])cc1`, the IC50 was > 80 µM (inactive).

For `CC1=NN(c2ccccc2)C(=O)/C1=C/C=C/c1ccc(N(C)C)cc1`, the IC50 was > 80 µM (inactive).

As for `CCCN1/C(=C2/SC(=S)N(CC)C2=O)C=Cc2ccccc21`, the IC50 is > 80 µM (inactive).

Take `CC1=NN(c2ccccc2)C(=O)/C1=C/C=C/C=C/N(C)C`: the IC50 is 10.2 µM.

As to `O=Nc1c(-c2c(O)[nH]c3cc(Br)ccc23)[nH]c2ccccc12`, the IC50 was 66.1 µM (inactive).

For the molecule `C[N+]1=C(/C=C/Nc2ccccc2)C(C)(C)c2ccccc21`, the IC50 is 16.9 µM.

As for `O=S(=O)(O)c1cc(Cl)cc(N=Nc2ccc(O)cc2O)c1O`, the IC50 is 1.42 µM.

As for `Nc1nc(-c2ccccc2)c(N=Nc2cccc3ccccc23)s1`, the IC50 was > 80 µM (inactive).

In the case of `CC1CC(C)CN(C(=O)c2ccc3c(c2NCCO)C(=O)c2ccccc2C3=O)C1` (configuration not stated), the IC50 is > 80 µM (inactive).

(Values after PubChem BioAssay AID652252 (Sanford-Burnham Center for Chemical Genomics, 2013).)
